This note sets out measurements from US20230210819A1, “USE OF BENZISOSELAZOLE DERIVATIVE FOR ANTI-CORONAVIRUS AND CONTROL OF INTERSTITIAL LUNG DISEASE (ILD) RELATED TO CORONAVIRUS” (SHANGHAI YUANXI MEDICINE CORP., priority 2020, published 2023).

The first experiment deals with 2019-nCoV 3CLpro protein (Severe acute respiratory syndrome coronavirus 2, UniProt P0DTD1). Kind of experiment: 2019-nCoV 3CLpro protein activity, fluorescence method with fluorescent polypeptide substrate. The class given is biochemical.
Conditions: not given
As a reminder, the IC50 is the concentration that gives 50% inhibition. The compound `O=c1c2ccccc2[se]n1CCCn1[se]c2ccccc2c1=O` had an IC50 of 115 nM.

The compound `O=c1c2ccccc2[se]n1CCCCCn1[se]c2ccccc2c1=O` gave an IC50 of 86.2 nM. Still for that read-out and setting: the result for `O=c1c2ccccc2[se]n1CCCCCCCCCCCCn1[se]c2ccccc2c1=O` reads 35.6 nM; that for `O=c1c2cc(O)ccc2[se]n1CCCCn1[se]c2ccc(O)cc2c1=O`, 41.5 nM; that for `O=c1c2ccccc2[se]n1-c1ccc(S(=O)(=O)n2[se]c3ccccc3c2=O)cc1`, 1240 nM. Still for that read-out and setting: the result for `Cc1[nH]c(/C=C2\C(=O)Nc3c(F)cccc32)c(C)c1C(=O)OCCn1[se]c2ccccc2c1=O` reads 1640 nM; that for `O=c1c2ccccc2[se]n1CCSSCCn1[se]c2ccccc2c1=O`, 1460 nM; that for `O=c1c2ccccc2[se]n1CCCCn1[se]c2ccccc2c1=O` [drawing 188], 111 nM.

The experiment is the same for the next values; noted with them: read-out: IC50 (converted).
As for `O=c1c2ccccc2[se]n1CCn1[se]c2ccccc2c1=O`, the IC50 was 1230 nM.

Another experiment relates to bleomycin-induced mouse lung disease model. The experiment in a line: Lung and spleen coefficients, 24-h modeling. Format: in vivo, C57 mice. Conditions: 90 mg/kg, effect better than that of Dex. The protocol: Animals of 24-h modeling were randomly divided into 5 groups according to the table below, 3 animals per control group and 5 animals per test group.
Drug administration began 24 h or 7 d after modeling. […] The day of the first administration was counted as D1, the next day as D2, and so forth. The normal groups and Model groups were given 200 µL of normal saline daily by gavage administration.
Method: after being euthanized, the animals were dissected, and the heart, liver, spleen, lung and kidney were weighed.
In this experiment, 105 C57 mice were randomly selected and subjected to organ drip administration of a single dose of bleomycin at 2.5 mg/kg for 24 h or 7 d for induction. After 7 days of induction, 3 model mice were randomly selected and dissected to determine whether the modeling was successful. After modeling, the survival of the mice was recorded. The living states of the mice were observed and their body weight was measured at a fixed time.
A normal control group comprised 3 mice.
On to `O=c1c2ccccc2[se]n1CCCCn1[se]c2ccccc2c1=O` [BS1801], for which the “Effect on lung coefficient (in words)” value is reported as “significantly reduce increases in the lung coefficient”.
